# Data reported in patent US20100305121A1, “NOVEL ANTAGONISTS OF THE HUMAN FATTY ACID SYNTHASE THIOESTERASE” (priority 2006, published 2010).
# pIC50, pKi: −log10 of the molar value.
# How the values were obtained:
# [1] = biological target: T1, FAS holoenzyme (Homo sapiens, UniProt P49327); test: Fatty acid synthesis in vitro, [14C] malonyl-CoA incorporation in MDA-MB-435 cell lysates; assay type: biochemical; conditions: for effect on fatty acid biosynthesis in cell lysates: 6.3 to 50 μM
# T1 construct: Fatty acid synthesis by the FAS holoenzyme in cell lysates was measured by incorporation of; endogenous in cells; host or cells: MDA-MB-435 cell lysate
# [2] = Cytotoxicity, MTS assay; conditions: human, MDA-MB-435 breast carcinoma cells, Cytotoxicity IC50 (μM), MDA-MB-435 cells
# [3] = biological target: T2, human FAS TE (Homo sapiens, UniProt P49327); test: Kinetic characterization of inhibitors, 4-MUH turnover by FAS TE; assay type: biochemical
# T2 construct: Expression of the recombinant thioesterase domain of FAS using pTrcHis-TOPO vector (Invitrogen) was as described in Kridel et al. (2004); His tag (from pTrcHis-TOPO vector)
# [4] = biological target: T2, human FAS TE; test: Fluorogenic 4-MUH screening assay of recombinant FAS TE (primary and secondary screen); assay type: biochemical
# [5] = biological target: T1, FAS holoenzyme; test: Activity-based probe FP-BODIPY labeling of FAS TE active site in MDA-MB-435 cell lysates; assay type: binding; conditions: MB-MDA-435 cell lysates, 50 nM probe
# [6] = system: MDA-MB-435 breast carcinoma cells; test: Cytotoxicity, MTS assay; conditions: read-out: Cytotoxicity IC50, MDA-MB-435 cells, 48 hours
# T1 sequence (P49327 2-2511 limits assumed): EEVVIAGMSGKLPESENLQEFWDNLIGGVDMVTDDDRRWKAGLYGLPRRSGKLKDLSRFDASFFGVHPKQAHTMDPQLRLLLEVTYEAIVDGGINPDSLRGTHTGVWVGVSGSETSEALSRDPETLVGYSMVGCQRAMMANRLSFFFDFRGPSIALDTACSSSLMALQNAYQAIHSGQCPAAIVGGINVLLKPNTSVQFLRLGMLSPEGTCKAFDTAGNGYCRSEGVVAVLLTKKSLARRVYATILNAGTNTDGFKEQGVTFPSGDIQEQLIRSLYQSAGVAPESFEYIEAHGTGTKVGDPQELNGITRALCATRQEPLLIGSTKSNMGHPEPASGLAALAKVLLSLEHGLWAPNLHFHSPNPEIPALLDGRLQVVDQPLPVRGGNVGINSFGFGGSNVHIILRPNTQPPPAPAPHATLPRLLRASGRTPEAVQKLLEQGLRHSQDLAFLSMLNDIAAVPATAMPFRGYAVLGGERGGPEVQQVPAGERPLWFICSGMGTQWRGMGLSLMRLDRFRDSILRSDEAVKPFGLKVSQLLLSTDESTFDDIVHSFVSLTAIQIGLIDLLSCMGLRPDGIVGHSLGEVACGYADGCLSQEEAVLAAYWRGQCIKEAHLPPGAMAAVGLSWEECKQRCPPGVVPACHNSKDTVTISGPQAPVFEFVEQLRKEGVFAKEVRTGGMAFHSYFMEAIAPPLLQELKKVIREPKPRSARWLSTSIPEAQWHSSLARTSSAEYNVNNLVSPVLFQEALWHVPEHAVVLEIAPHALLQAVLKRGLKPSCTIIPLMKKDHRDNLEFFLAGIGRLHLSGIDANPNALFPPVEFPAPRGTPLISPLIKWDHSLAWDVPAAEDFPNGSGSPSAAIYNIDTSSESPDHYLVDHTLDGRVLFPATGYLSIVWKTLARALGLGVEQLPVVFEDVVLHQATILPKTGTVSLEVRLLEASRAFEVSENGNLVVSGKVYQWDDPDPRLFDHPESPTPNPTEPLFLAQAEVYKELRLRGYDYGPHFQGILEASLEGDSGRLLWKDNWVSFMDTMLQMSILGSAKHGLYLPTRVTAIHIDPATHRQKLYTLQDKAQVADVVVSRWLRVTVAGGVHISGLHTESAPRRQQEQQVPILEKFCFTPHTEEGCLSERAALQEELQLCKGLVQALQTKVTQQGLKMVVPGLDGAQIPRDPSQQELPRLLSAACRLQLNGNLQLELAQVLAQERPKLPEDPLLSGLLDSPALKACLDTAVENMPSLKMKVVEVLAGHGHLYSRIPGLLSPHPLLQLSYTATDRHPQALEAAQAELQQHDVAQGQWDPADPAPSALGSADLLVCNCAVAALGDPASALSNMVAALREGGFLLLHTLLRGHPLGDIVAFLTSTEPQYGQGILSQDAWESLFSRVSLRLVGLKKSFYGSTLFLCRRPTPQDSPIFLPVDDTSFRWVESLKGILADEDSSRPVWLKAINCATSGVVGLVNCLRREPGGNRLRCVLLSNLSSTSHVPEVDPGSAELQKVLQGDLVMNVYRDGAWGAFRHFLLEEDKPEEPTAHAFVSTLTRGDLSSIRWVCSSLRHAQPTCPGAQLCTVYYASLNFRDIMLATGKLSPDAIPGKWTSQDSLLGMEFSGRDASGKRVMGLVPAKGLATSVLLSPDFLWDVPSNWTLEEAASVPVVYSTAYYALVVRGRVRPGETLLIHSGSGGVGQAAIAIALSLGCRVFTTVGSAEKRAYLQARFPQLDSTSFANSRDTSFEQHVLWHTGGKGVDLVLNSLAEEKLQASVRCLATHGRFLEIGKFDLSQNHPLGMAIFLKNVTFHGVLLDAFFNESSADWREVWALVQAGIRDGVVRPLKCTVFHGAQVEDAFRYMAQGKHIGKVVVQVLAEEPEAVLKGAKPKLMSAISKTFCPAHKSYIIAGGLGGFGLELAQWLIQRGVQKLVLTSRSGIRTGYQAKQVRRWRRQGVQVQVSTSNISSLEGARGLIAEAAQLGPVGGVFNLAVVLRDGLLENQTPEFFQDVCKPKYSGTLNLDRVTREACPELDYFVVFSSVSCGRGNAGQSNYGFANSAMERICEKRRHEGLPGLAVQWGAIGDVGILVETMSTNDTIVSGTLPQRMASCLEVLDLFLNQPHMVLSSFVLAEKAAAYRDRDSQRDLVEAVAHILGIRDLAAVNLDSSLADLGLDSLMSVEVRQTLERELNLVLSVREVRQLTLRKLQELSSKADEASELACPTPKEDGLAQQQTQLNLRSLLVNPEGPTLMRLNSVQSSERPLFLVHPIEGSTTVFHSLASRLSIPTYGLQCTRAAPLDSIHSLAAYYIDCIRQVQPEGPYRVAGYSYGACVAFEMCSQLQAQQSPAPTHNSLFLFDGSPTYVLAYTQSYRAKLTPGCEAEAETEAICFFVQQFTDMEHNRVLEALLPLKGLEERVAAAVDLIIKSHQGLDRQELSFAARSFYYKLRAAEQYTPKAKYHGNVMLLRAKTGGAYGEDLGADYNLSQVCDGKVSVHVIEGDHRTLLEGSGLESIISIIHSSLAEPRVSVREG
# T2 sequence (P49327 2207-2511 limits assumed): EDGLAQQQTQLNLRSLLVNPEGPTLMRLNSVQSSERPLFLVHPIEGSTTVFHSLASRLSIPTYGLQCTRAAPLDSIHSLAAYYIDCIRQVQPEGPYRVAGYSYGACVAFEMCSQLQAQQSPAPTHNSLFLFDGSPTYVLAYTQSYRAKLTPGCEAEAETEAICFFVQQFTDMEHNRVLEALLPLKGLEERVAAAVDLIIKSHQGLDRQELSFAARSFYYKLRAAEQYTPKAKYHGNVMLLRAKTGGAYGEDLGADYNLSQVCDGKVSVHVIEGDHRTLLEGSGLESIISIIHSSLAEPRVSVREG
smiles,measurement,setting,value
"Cc1ccc(Br)c(-c2ccc(C=C3C(=O)NC(=S)NC3=O)o2)c1 [RDR019 (1), 5-((5-(2-bromo-5-methylphenyl)furan-2-yl)methylene)-2-thioxodihydropyrimidine-4,6(1H,5H)-dionc]",pIC50,[1],~4.70
same,effect on fatty acid biosynthesis in cell lysates,[1],completely abrogated fatty acid biosynthesis
same,IC50 at 48 h,[2],20.6 µM
same,pKi,[3],6.96
same,partial versus pure non-competitive inhibition (Km/Vmax(i) versus [I]),[3],partial non-competitive inhibitor
same,type of inhibition of FAS TE (double reciprocal plots),[3],non-competitive inhibitors
"CN(C)c1ccc(C/C=C2/C(=O)NC(=S)N(c3ccccc3F)C2=O)cc1 [RDR057 (10), (Z)-5-(2-(4-(dimethylamino)phenyl)ethylidene)-1-(2-fluorophenyl)-2-thioxodihydropyrimidine-4,6(1H,5H)-dione]",pIC50,[4],5.37
"CN1C(=O)NC(=O)/C(=C/c2ccc(-c3ccc([N+](=O)[O-])cc3Br)o2)C1=O [RDR102 (2), (Z)-5-((5-(2-bromo-4-nitrophenyl)furan-2-yl)methylene)-1-methylpyrimidine-2,4,6(1H,3H,5H)-trione]",pIC50,[1],~4.70
same,effect on fatty acid biosynthesis in cell lysates,[1],completely abrogated fatty acid biosynthesis
same,IC50 at 48 h,[2],14.2 µM
same,pKi,[3],7.00
same,concentration of complete inhibition of FP-BODIPY binding,[5],approximately 50 μM
"COc1cccc(N2C(=O)NC(=O)/C(=C/C/C=C/c3ccccc3[N+](=O)[O-])C2=O)c1 [RDR203 (9), (Z)-1-(3-methoxyphenyl)-5-((E)-4-(2-nitrophenyl)but-3-enylidene)pyrimidine-2,4,6(1H,3H,5H)-trione]",pIC50,[4],5.70
"O=C1NC(=O)C(=Cc2ccc(-c3cc([N+](=O)[O-])ccc3O)o2)C(=O)N1 [RDR256 (5), 5-((5-(2-hydroxy-5-nitrophenyl)furan-2-yl)methylene)pyrimidine-2,4,6(1H,3H,5H)-trione]",pIC50,[4],5.04
"O=C1NC(=O)C(=Cc2ccc(-c3ccccc3C(=O)O)o2)C(=O)N1 [RDR317 (6), 2-(5-((2,4,6-trioxotetrahydropyrimidin-5(6H)-ylidene)methyl)furan-2-yl)benzoic acid]",pIC50,[4],4.54
"O=C1NC(=S)NC(=O)C1=Cc1ccc(-c2ccc(C(=O)O)cc2)o1 [RDR423 (4), 4-(5-((4,6-dioxo-2-thioxotetrahydropyrimidin-5(6H)-ylidene)methyl)furan-2-yl)benzoic acid]",pIC50,[4],5.28
"CCOc1ccc(C/C=C2/C(=O)NC(=O)N(c3ccc(OCC)cc3)C2=O)cc1 [RDR506 (11), (Z)-1-(4-ethoxyphenyl)-5-(2-(4-ethoxyphenyl)ethylidene)pyrimidine-2,4,6(1H,3H,5H)-trione]",pIC50,[4],4.84
"Cc1cccc(N2C(=O)NC(=O)/C(=C/Nc3ccccc3C)C2=O)c1 [RDR564 (12), (Z)-1-m-tolyl-5-((o-tolylamino)methylene)pyrimidine-2,4,6(1H,3H,5H)-trione]",pIC50,[4],3.98
"COc1ccc(N2C(=O)NC(=O)/C(=C/C/C=C/c3ccccc3)C2=O)c(OC)c1 [RDR755 (7), (Z)-1-(2,4-dimethoxyphenyl)-5-((E)-4-phenylbut-3-enylidene)pyrimidine-2,4,6(1H,3H,5H)-trione]",IC50 at 48 h,[2],1.6 µM
same,pIC50,[6],5.79
same,pKi,[3],6.92
same,type of inhibition of FAS TE (double reciprocal plots),[3],non-competitive inhibitors
"O=C1NC(=O)N(c2ccccc2)C(=O)/C1=C\C/C=C/c1ccccc1[N+](=O)[O-] [RDR914 (8), (Z)-5-((E)-4-(2-nitrophenyl)but-3-enylidene)-1 - phenylpyrimidine-2,4,6(1H,3H,5H)-trione]",IC50 at 48 h,[2],9.5 µM
same,pIC50,[6],5.02
same,pIC50,[4],5.82
"COc1ccc(-c2ccc(C=C3C(=O)NC(=S)NC3=O)o2)c([N+](=O)[O-])c1 [RDR924 (3), 5-((5-(4-methoxy-2-nitrophenyl)furan-2-yl)methylene)-2-thioxodihydropyrimidine-4,6(1H,5H)-dione]",pIC50,[4],5.36
same,concentration of complete inhibition of FP-BODIPY binding,[5],approximately 50 μM
